# Reference: PubChem BioAssay AID328 (DTP/NCI, 2004)
# Values joined by “and” are separate entries in the source; they are usually repeats but may differ in a detail not shown here. Identical values can stand only once. Inconclusive results and toxic doses are left out.
# System: BDF1 mice, P388 leukemia ip, median survival T/C
# Experiment: NCI In Vivo Anticancer Drug Screen. Data for tumor model P388 Leukemia (intraperitoneal) in B6D2F1 (BDF1) mice
# Details: endpoint: median survival time, higher = longer survival
# Procedure, shortened: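 Transplantable tumour in mice; compound vs vehicle dosing; survival scored; ratio of treated to control reported.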
# [1] = dose: 12.5 mg/kg/injection, schedule: Q01DX009 (ip), vehicle: saline
# [2] = dose: 25.0 mg/kg/injection, schedule: Q01DX009 (ip), vehicle: saline
# [3] = dose: 50.0 mg/kg/injection, schedule: Q01DX009 (ip), vehicle: saline
# [4] = dose: 50.0 mg/kg/injection, schedule: Q01DX009 (ip), vehicle: saline with Tween-80
# [5] = dose: 100.0 mg/kg/injection, schedule: Q01DX009 (ip), vehicle: saline with Tween-80
# [6] = dose: 200.0 mg/kg/injection, schedule: Q01DX009 (ip), vehicle: saline with Tween-80
# [7] = dose: 400.0 mg/kg/injection, schedule: Q01DX009 (ip), vehicle: saline with Tween-80
# [8] = dose: 100.0 mg/kg/injection, schedule: Q04DX003 (ip), vehicle: saline
# [9] = dose: 200.0 mg/kg/injection, schedule: Q04DX003 (ip), vehicle: saline
smiles,measurement,setting,value
CC1(C)N=C(N)N=C(N)N1c1ccc(F)c(C(F)(F)F)c1,T/C,"dose: 3.12 mg/kg/injection, schedule: Q01DX009 (ip), vehicle: saline",120 % of control
same,T/C,[1],169 % of control and 189 % of control
same,T/C,"dose: 16.0 mg/kg/injection, schedule: Q01DX009 (ip), vehicle: saline",216 % of control
same,T/C,[2],245 % of control and 87 % of control and 191 % of control
same,T/C,[3],216 % of control
CC(C)CCCC(C)C1CCC2C3CC=C4CC(OP(=O)(N5CC5)N5CC5)CCC4(C)C3CCC12C (configuration not stated),T/C,"dose: 25.0 mg/kg/injection, schedule: Q01DX009 (ip), vehicle: saline with Tween-80",98 % of control
same,T/C,[4],100 % of control
same,T/C,[5],117 % of control
same,T/C,[6],110 % of control
COc1ccc2c(c1)CCC1C2CCC2(C)/C(=N/O)C(Cl)C(O)C12 (configuration not stated),T/C,"dose: 6.25 mg/kg/injection, schedule: Q01DX001 (ip), vehicle: saline with Tween-80",100 % of control
same,T/C,"dose: 12.5 mg/kg/injection, schedule: Q01DX001 (ip), vehicle: saline with Tween-80",109 % of control
same,T/C,"dose: 25.0 mg/kg/injection, schedule: Q01DX001 (ip), vehicle: saline with Tween-80",97 % of control
CN(C)C(=O)c1cccc(N)c1,T/C,"dose: 100.0 mg/kg/injection, schedule: Q01DX009 (ip), vehicle: saline",100 % of control
same,T/C,"dose: 200.0 mg/kg/injection, schedule: Q01DX009 (ip), vehicle: saline",95 % of control
same,T/C,"dose: 400.0 mg/kg/injection, schedule: Q01DX009 (ip), vehicle: saline",100 % of control
COC(=O)Nc1nc2ccc(C(=O)c3cccs3)cc2[nH]1,T/C,"dose: 20.0 mg/kg/injection, schedule: Q01DX009 (ip), vehicle: saline with Tween-80",117 % of control
same,T/C,"dose: 21.6 mg/kg/injection, schedule: Q04DX003 (ip), vehicle: other",167 % of control
same,T/C,"dose: 22.0 mg/kg/injection, schedule: Q04DX003 (ip), vehicle: other",153 % of control
same,T/C,"dose: 36.0 mg/kg/injection, schedule: Q04DX003 (ip), vehicle: other",199 % of control
same,T/C,"dose: 40.0 mg/kg/injection, schedule: Q01DX009 (ip), vehicle: saline with Tween-80",183 % of control
same,T/C,"dose: 50.0 mg/kg/injection, schedule: Q04DX003 (ip), vehicle: Klucel (hydroxypropylcellulose) (HPC)",163 % of control and 173 % of control
same,T/C,"dose: 60.0 mg/kg/injection, schedule: Q01DX009 (ip), vehicle: saline with Tween-80",225 % of control
same,T/C,"dose: 60.0 mg/kg/injection, schedule: Q04DX003 (ip), vehicle: other",274 % of control
same,T/C,"dose: 75.0 mg/kg/injection, schedule: Q04DX003 (ip), vehicle: Klucel (hydroxypropylcellulose) (HPC)",173 % of control and 175 % of control
same,T/C,"dose: 75.0 mg/kg/injection, schedule: Q04DX003 (ip), vehicle: saline with Tween-80",193 % of control
same,T/C,"dose: 100.0 mg/kg/injection, schedule: Q04DX003 (ip), vehicle: Klucel (hydroxypropylcellulose) (HPC)",165 % of control and 184 % of control
CC[n+]1c(-c2ccccc2)c2cc(N)ccc2c2ccc(N)cc21 (tested in a mixture with another compound),T/C,"dose: 25.0 mg/kg/injection, schedule: Q01DX009 (ip), vehicle: other",112 % of control
same,T/C,"dose: 50.0 mg/kg/injection, schedule: Q01DX009 (ip), vehicle: other",112 % of control
NC(N)=Nc1cccc(C(F)(F)F)c1,T/C,[4],94 % of control
same,T/C,[5],100 % of control
same,T/C,[6],109 % of control
CN(C)P(=O)(N(C)C)N(C)CCN(C)P(=O)(N(C)C)N(C)C,T/C,[1],108 % of control
same,T/C,[2],101 % of control
same,T/C,[3],101 % of control and 111 % of control
CC(C)(Br)C(=O)c1ccc(Cl)s1,T/C,[4],101 % of control
same,T/C,[5],111 % of control
same,T/C,"dose: 100.0 mg/kg/injection, schedule: Q04DX003 (ip), vehicle: saline with Tween-80",109 % of control
same,T/C,[6],119 % of control
same,T/C,"dose: 200.0 mg/kg/injection, schedule: Q04DX003 (ip), vehicle: saline with Tween-80",115 % of control
same,T/C,[7],119 % of control
same,T/C,"dose: 400.0 mg/kg/injection, schedule: Q04DX003 (ip), vehicle: saline with Tween-80",107 % of control
O=C(Oc1ccc([N+](=O)[O-])cc1)c1ccc(CBr)cc1,T/C,[2],95 % of control
same,T/C,[3],100 % of control
same,T/C,[8],90 % of control
same,T/C,[9],86 % of control
CCOC(=S)Nc1ccc(F)cc1,T/C,"dose: 33.7 mg/kg/injection, schedule: Q01DX009 (ip), vehicle: saline with Tween-80",94 % of control
same,T/C,"dose: 67.5 mg/kg/injection, schedule: Q01DX009 (ip), vehicle: saline with Tween-80",103 % of control
same,T/C,"dose: 135.0 mg/kg/injection, schedule: Q01DX009 (ip), vehicle: saline with Tween-80",102 % of control
O=C(Cn1ccc(=O)[nH]c1=O)c1ccc([N+](=O)[O-])o1,T/C,"dose: 25.0 mg/kg/injection, schedule: Q04DX003 (ip), vehicle: saline",109 % of control
same,T/C,"dose: 50.0 mg/kg/injection, schedule: Q04DX003 (ip), vehicle: saline",100 % of control
COc1ccccc1N1C(=O)CC(Sc2ccccc2N)C1=O (configuration not stated),T/C,[5],91 % of control
same,T/C,"dose: 132.0 mg/kg/injection, schedule: Q01DX009 (ip), vehicle: saline with Tween-80",95 % of control
same,T/C,[6],105 % of control
same,T/C,"dose: 300.0 mg/kg/injection, schedule: Q01DX009 (ip), vehicle: saline with Tween-80",105 % of control
same,T/C,[7],91 % of control
CSC(=S)NNC(=O)C1CCCCC1,T/C,"dose: 25.0 mg/kg/injection, schedule: Q01DX001 (ip), vehicle: saline sonified",100 % of control
same,T/C,"dose: 50.0 mg/kg/injection, schedule: Q01DX001 (ip), vehicle: saline sonified",104 % of control
same,T/C,"dose: 100.0 mg/kg/injection, schedule: Q01DX001 (ip), vehicle: saline sonified",100 % of control
C[n+]1c(-c2cccc3ccccc23)c2cc([N+](=O)[O-])ccc2c2ccccc21,T/C,"dose: 1.0 mg/kg/injection, schedule: Q04DX003 (ip), vehicle: water",113 % of control
same,T/C,"dose: 2.0 mg/kg/injection, schedule: Q04DX003 (ip), vehicle: water",104 % of control
same,T/C,"dose: 4.0 mg/kg/injection, schedule: Q01DX009 (ip), vehicle: water",118 % of control
same,T/C,"dose: 4.0 mg/kg/injection, schedule: Q04DX003 (ip), vehicle: water",115 % of control
same,T/C,"dose: 8.0 mg/kg/injection, schedule: Q04DX003 (ip), vehicle: water",97 % of control and 108 % of control
same,T/C,"dose: 16.0 mg/kg/injection, schedule: Q04DX003 (ip), vehicle: water",109 % of control
same,T/C,"dose: 32.0 mg/kg/injection, schedule: Q01DX009 (ip), vehicle: water",109 % of control
same,T/C,"dose: 32.0 mg/kg/injection, schedule: Q04DX003 (ip), vehicle: water",106 % of control
C=CC[N+](C)(CC=C)CC[N+](C)(CC=C)CC=C,T/C,"dose: 50.0 mg/kg/injection, schedule: Q01DX009 (ip), vehicle: water",95 % of control
same,T/C,"dose: 50.0 mg/kg/injection, schedule: Q04DX003 (ip), vehicle: water",109 % of control
same,T/C,"dose: 100.0 mg/kg/injection, schedule: Q01DX009 (ip), vehicle: water",104 % of control
same,T/C,"dose: 100.0 mg/kg/injection, schedule: Q04DX003 (ip), vehicle: water",104 % of control
same,T/C,"dose: 150.0 mg/kg/injection, schedule: Q01DX009 (ip), vehicle: water",95 % of control
CC1(C)C2C=CC1C(CO)(CO)C2 (configuration not stated),T/C,"dose: 100.0 mg/kg/injection, schedule: Q01DX001 (ip), vehicle: saline",100 % of control
same,T/C,[8],100 % of control
same,T/C,"dose: 200.0 mg/kg/injection, schedule: Q01DX001 (ip), vehicle: saline",104 % of control
same,T/C,[9],91 % of control
same,T/C,"dose: 400.0 mg/kg/injection, schedule: Q01DX001 (ip), vehicle: saline",108 % of control
same,T/C,"dose: 400.0 mg/kg/injection, schedule: Q04DX003 (ip), vehicle: saline",100 % of control
CCC(C)(O)C(=O)OC1C(=O)OC2CC3C(C)CC(=O)C(O)C3(C)C3C4(O)OCC23C1C(C)C4O (configuration not stated),T/C,"dose: 0.12 mg/kg/injection, schedule: Q01DX009 (ip), vehicle: saline with Tween-80",121 % of control
same,T/C,"dose: 0.25 mg/kg/injection, schedule: Q01DX009 (ip), vehicle: saline with Tween-80",118 % of control
same,T/C,"dose: 0.5 mg/kg/injection, schedule: Q01DX009 (ip), vehicle: saline with Tween-80",116 % of control
same,T/C,"dose: 1.0 mg/kg/injection, schedule: Q01DX009 (ip), vehicle: saline with Tween-80",121 % of control
same,T/C,"dose: 8.0 mg/kg/injection, schedule: Q01DX009 (ip), vehicle: saline with Tween-80",122 % of control
same,T/C,"dose: 16.0 mg/kg/injection, schedule: Q01DX009 (ip), vehicle: saline with Tween-80",152 % of control
CCCCCCC(N)C(C)O (configuration not stated),T/C,[1],105 % of control
same,T/C,[2],100 % of control
same,T/C,[4],101 % of control
same,T/C,[3],105 % of control
